Assay results taken from US6426360B1, “4,5-substituted imidazolyl compounds for the treatment of inflammation” (G D Searle & Co., priority 1994, dated 2002).
pIC50: −log10 of the molar value.

Columns and labels:
Human COX I = target: T1, Human COX I (Homo sapiens, UniProt P23219); test: COX I activity in vitro (PGE2 ELISA, recombinant enzyme); format: biochemical; settings: arachidonic acid 10 μM, pre-incubation 10-20 minutes; read-out: Human COX I ID50
T1 construct: A 2.0 kb fragment containing the coding region of either human or murine COX-I or human or murine COX-II; made in house; host or cells: SF9 insect cells (recombinant baculovirus, transfer vector pVL1393)
T1 sequence (P23219 24-599): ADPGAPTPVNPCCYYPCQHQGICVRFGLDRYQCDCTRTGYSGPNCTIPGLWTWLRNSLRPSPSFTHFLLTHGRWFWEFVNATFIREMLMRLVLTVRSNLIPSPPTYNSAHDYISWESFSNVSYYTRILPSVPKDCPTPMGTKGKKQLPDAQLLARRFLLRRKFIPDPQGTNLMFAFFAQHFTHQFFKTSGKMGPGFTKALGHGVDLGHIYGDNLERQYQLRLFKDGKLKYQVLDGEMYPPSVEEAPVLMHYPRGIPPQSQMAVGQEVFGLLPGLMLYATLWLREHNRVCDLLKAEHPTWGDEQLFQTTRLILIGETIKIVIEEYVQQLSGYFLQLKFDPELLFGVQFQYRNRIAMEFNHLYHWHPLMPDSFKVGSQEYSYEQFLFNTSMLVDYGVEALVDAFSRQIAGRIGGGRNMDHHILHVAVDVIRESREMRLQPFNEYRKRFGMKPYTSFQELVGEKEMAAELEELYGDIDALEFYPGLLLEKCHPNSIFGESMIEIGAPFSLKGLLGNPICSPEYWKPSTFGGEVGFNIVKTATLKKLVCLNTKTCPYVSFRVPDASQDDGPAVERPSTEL
Experimental: (§1) A 2.0 kb fragment containing the coding region of either human or murine COX-I or human or murine COX-II was cloned into a BamH1 site of the baculovirus transfer vector pVL1393 (Invitrogen) to generate the baculovirus transfer vectors for COX-I and COX-II in a manner similar to the method of D. R. O'Reilly et al (Baculovirus Expression Vectors: A Laboratory Manual (1992)). Recombinant baculoviruses were isolated by transfecting 4 μg of baculovirus transfer vector DNA into SF9 insect cells ([…]) along with 200 ng of linearized baculovirus plasmid DNA by the calcium phosphate method. See M. D. Summers and G. E. Smith, A Manual of Methods for Baculovirus Vectors and Insect Cell Culture Procedures, Texas Agric. Exp. Station Bull. 1555 (1987). Recombinant viruses were purified by three rounds of plaque purification and high titer (10E7-10E8 pfu/ml), stocks of virus were prepared. For large scale production, SF9 insect cells were infected in 10 liter fermentors (0.5×10^6/ml) with the recombinant baculovirus stock such that the multiplicity of infection was 0.1. After 72 hours the cells were centrifuged and the cell pellet homogenized in Tris/Sucrose (50 mM: 25%, pH 8.0) containing 1% 3-[(3-cholamidopropyl)dimethylammonio]-1-propanesulfonate (CHAPS). The homogenate was centrifuged at 10,000×G for 30 minutes, and the resultant supernatant was stored at −80° C. before being assayed for COX activity.
(§2) COX activity was assayed as PGE2 formed/μg protein/time using an ELISA to detect the prostaglandin released. CHAPS-solubilized insect cell membranes containing the appropriate COX enzyme were incubated in a potassium phosphate buffer (50 mM, pH 8.0) containing epinephrine, phenol, and heme with the addition of arachidonic acid (10 μM). Compounds were pre-incubated with the enzyme for 10-20 minutes prior to the addition of arachidonic acid. Any reaction between the arachidonic acid and the enzyme was stopped after ten minutes at 37° C./room temperature by transferring 40 μl of reaction mix into 160 μl ELISA buffer and 25 μM indomethacin. The PGE2 formed was measured by standard ELISA technology (Cayman Chemical).

Human COX II = target: T2, Human COX II (Homo sapiens, UniProt P35354); test: COX II activity in vitro (PGE2 ELISA, recombinant enzyme); format: biochemical; settings: arachidonic acid 10 μM, pre-incubation 10-20 minutes; read-out: Human COX II ID50
T2 construct: A 2.0 kb fragment containing the coding region of either human or murine COX-I or human or murine COX-II; made in house; host or cells: SF9 insect cells (recombinant baculovirus, transfer vector pVL1393)
T2 sequence (P35354 18-604): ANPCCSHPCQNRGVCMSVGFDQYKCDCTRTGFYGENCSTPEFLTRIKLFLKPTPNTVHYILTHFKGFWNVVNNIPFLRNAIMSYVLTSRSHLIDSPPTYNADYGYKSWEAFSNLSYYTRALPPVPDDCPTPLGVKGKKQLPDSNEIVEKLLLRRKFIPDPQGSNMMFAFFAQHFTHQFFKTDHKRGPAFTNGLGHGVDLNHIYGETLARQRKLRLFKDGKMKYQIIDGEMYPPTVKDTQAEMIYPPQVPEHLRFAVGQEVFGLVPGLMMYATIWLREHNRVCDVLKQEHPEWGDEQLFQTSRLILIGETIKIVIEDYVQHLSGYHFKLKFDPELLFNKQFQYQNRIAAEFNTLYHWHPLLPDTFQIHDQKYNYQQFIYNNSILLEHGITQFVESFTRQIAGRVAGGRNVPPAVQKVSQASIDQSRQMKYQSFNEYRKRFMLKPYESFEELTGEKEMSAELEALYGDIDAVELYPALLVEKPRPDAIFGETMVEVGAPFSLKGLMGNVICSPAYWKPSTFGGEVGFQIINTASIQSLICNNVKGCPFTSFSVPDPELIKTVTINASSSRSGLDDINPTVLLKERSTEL
Experimental: The COX II inhibition activity of the compounds of this invention illustrated in the Examples was determined by the following methods.
as §1, §2

Structure (SMILES)	melting point	pIC50 (Human COX I)	pIC50 (Human COX II)
CS(=O)(=O)c1ccc(-c2nc(C(F)(F)F)[nH]c2-c2ccc(F)cc2F)cc1 [Example 17, 5-(2,4-Difluorophenyl)-4-[4-(methylsulfonyl)phenyl]-2-(trifluoromethyl)-1H-imidazole]	–	< 4.00	6.52
CS(=O)(=O)c1ccc(-c2nc(C(F)(F)F)[nH]c2-c2ccc(F)c(F)c2)cc1 [Example 18, 5-(3,4-Difluorophenyl)-4-[4-(methylsulfonyl)phenyl]-2-(trifluoromethyl)-1H-imidazole]	–	< 4.00	6.70
CS(=O)(=O)c1ccc(-c2nc(C(F)(F)F)[nH]c2-c2ccccc2)cc1 [Example 19, 4-[4-(Methylsulfonyl)phenyl]-5-phenyl-2-(trifluoromethyl)-1H-imidazole]	228 to 230 °C	< 4.00	6.30
CS(=O)(=O)c1ccc(-c2nc(-c3ccoc3)[nH]c2-c2ccc(F)cc2)cc1 [Example 20, 5-(4-Fluorophenyl)-2-(3-furyl)-4-(4-methylsulfonylphenyl)-1H-imidazole]	233 to 235 °C (dec.)	< 4.00	4.39
Cn1c(C(F)(F)F)nc(-c2ccc(S(C)(=O)=O)cc2)c1-c1ccc(F)cc1 [Example 44, 5-(4-Fluorophenyl)-1-methyl-4-[4-(methylsulfonyl)phenyl]-2-(trifluoromethyl)-1H-imidazole]	–	< 4.00	4.89
CN(C)c1ccc(-c2[nH]c(C(F)(F)F)nc2-c2ccc(S(C)(=O)=O)cc2)cc1 [Example 48, N,N-Dimethyl-4-[4-[4-(methylsulfonyl)phenyl]-2-(trifluoromethyl)-1H-imidazol-5-yl]benzenamine]	248 to 251 °C	< 4.00	5.06
CS(=O)(=O)c1ccc(-c2[nH]c(SCc3ccc4ccccc4n3)nc2-c2ccc(F)cc2)cc1 [Example 50, 2-[[[4-(4-Fluorophenyl)-5-[4-(methylsulfonyl)phenyl]-1H-imidazol-2-yl]thio]methyl]quinoline]	179 to 182 °C	< 4.00	5.82
CS(=O)(=O)c1ccc(-c2nc(C(F)(F)F)[nH]c2-c2cccnc2)cc1 [Example 62, 4-(4-(Methylsulfonyl)phenyl]-5-(3-pyridyl)-2-(trifluoromethyl)-1H-imidazole]	–	< 4.00	5.62
CS(=O)(=O)c1ccc(-c2nc(C(F)(F)F)[nH]c2-c2cccc(C#N)c2)cc1 [Example 63]	–	< 4.00	5.89
C=CCOCc1nc(-c2ccc(F)cc2)c(-c2ccc(S(C)(=O)=O)cc2)[nH]1 [Example 80, 4-(4-Fluorophenyl)-5-[4-(methylsulfonyl)phenyl]-2-[(2-propenyloxy)methyl]-1H-imidazole]	–	< 4.00	5.54
CS(=O)(=O)c1ccc(-c2[nH]c(COCc3ccccc3)nc2-c2ccc(F)cc2)cc1 [Example 82, 4-(4-Fluorophenyl)-5-[4-(methylsulfonyl)phenyl]-2-(phenyl-methoxymethyl)-1H-imidazole]	–	< 4.00	6.15
CC(O)(c1nc(-c2ccc(F)cc2)c(-c2ccc(S(C)(=O)=O)cc2)[nH]1)C(F)(F)F (stereo not drawn) [Example 91, 4-(4-Fluorophenyl)-α-methyl-5-[4-(methylsulfonyl)phenyl]-α-(trifluoromethyl)-1H-imidazole-2-methanol]	–	< 4.00	5.23
CS(=O)(=O)c1ccc(-c2[nH]c(S(=O)(=O)c3ccccc3)nc2-c2ccc(F)cc2)cc1 [Example 92, 4-(4-Fluorophenyl)-5-[4-(methylsulfonyl)phenyl]-2-(phenyl-sulfonyl)-1H-imidazole]	–	< 4.00	5.52

The remaining lines, values ahead:

melting point	pIC50 (Human COX I)	pIC50 (Human COX II)	Structure (SMILES)
189 to 190 °C	< 4.00	6.70	CS(=O)(=O)c1ccc(-c2nc(COc3ccccc3)[nH]c2-c2ccc(F)cc2)cc1 [Example 2, 5-(4-Fluorophenyl)-4-(4-methylsulfonylphenyl)-2-phenoxymethyl-1H-imidazole]
221 to 224 °C	5.66	6.70	CS(=O)(=O)c1ccc(-c2nc(/C=C/c3ccccc3)[nH]c2-c2ccc(F)cc2)cc1 [Example 3, 5-(4-Fluorophenyl)-4-(4-methylsulfonylphenyl)-2-(2-phenyl-trans-eth-1-ene)-1H-imidazole]
235 to 237 °C	< 4.00	6.30	CS(=O)(=O)c1ccc(-c2nc(-c3cc4ccccc4o3)[nH]c2-c2ccc(F)cc2)cc1 [Example 4, 2-(2-Benzofuryl)-5-(4-fluorophenyl)-4-(4-methylsulfonylphenyl)-1H-imidazole]
214 to 215 °C	< 4.00	5.92	CC(C)c1nc(-c2ccc(S(C)(=O)=O)cc2)c(-c2ccc(F)cc2)[nH]1 [Example 5, 5-(4-Fluorophenyl)-2-isopropyl-4-(4-methylsulfonylphenyl)-1H-imidazole]
244 to 246 °C (dec.)	< 4.00	5.32	CS(=O)(=O)c1ccc(-c2nc(-c3ccco3)[nH]c2-c2ccc(F)cc2)cc1 [Example 7, 5-(4-Fluorophenyl)-2-(2-furyl)-4-(4-methylsulfonylphenyl)-1H-imidazole]
115 to 117 °C	< 4.00	5.29	CS(=O)(=O)c1ccc(-c2nc(CO)[nH]c2-c2ccc(F)cc2)cc1 [Example 9, 5-(4-Fluorophenyl)-2-hydroxymethyl-4-[4-(methylsulfonyl)phenyl]imidazole]
228 to 234 °C	4.20	5.92	COc1ccc(-c2[nH]c(C(F)(F)F)nc2-c2ccc(S(C)(=O)=O)cc2)cc1F [Example 10, 5-(3-Fluoro-4-methoxyphenyl)-4-[4-(methylsulfonyl)phenyl]-2-(trifluoromethyl)-1H-imidazole]
228 to 230 °C	5.70	6.22	CS(=O)(=O)c1ccc(-c2nc(C(F)(F)F)[nH]c2-c2ccc3ccccc3c2)cc1 [Example 14]
234 to 238 °C	4.70	6.22	Cc1ccc(-c2[nH]c(C(F)(F)F)nc2-c2ccc(S(C)(=O)=O)cc2)cc1 [Example 16, 5-(4-Methylphenyl)-4-[4-(methylsulfonyl)phenyl]-2-(trifluoromethyl)-1H-imidazole]
261 to 262 °C	4.89	7.00	CS(=O)(=O)c1ccc(-c2nc(C(F)(F)F)[nH]c2-c2ccc(Br)s2)cc1 [Example 47, 5-(5-Bromothien-2-yl)-4-[4-(methylsulfonyl)phenyl]-2-(trifluoromethyl)-1H-imidazole]
158 to 161 °C	4.97	4.26	CS(=O)(=O)c1ccc(-c2[nH]c(S)nc2-c2ccc(F)cc2)cc1 [Example 49, 4-(4-Fluorophenyl)-5-[4-(methylsulfonyl)phenyl]-1H-imidazole-2-thiol]
–	5.21	7.00	Cc1cccc(-c2[nH]c(C(F)(F)F)nc2-c2ccc(S(N)(=O)=O)cc2)c1 [Example 60, 5-(3-Methylphenyl)-4-[4-(sulfonamido)phenyl]-2-trifluoromethyl-1H-imidazole]
–	4.11	5.48	CCOCc1nc(-c2ccc(F)cc2)c(-c2ccc(S(C)(=O)=O)cc2)[nH]1 [Example 81, 2-(Ethoxymethyl)-4-(4-fluorophenyl)-5-[4-(methylsulfonyl)phenyl]-1H-imidazole]
